{"source": "paper PMC7672604", "about": "“Design, Synthesis, Molecular Docking, Antiapoptotic and Caspase-3 Inhibition of New 1,2,3-Triazole/Bis-2(1H)-Quinolinone Hybrids” (Molecules, 2020)", "key": {"cytochrome C": {"system": "cytochrome C", "experiment": "Cytochrome C ELISA in SR human cell line", "format": "cell-based", "experimental": "The 1,2,3-triazole/biquinolinone derivative 6c was evaluated for cytochrome C against the SR human cell line and the results are listed in Table 4.\nCells were collected from American Type Culture Collection to be grown in […] containing 10% fetal bovine serum at 37 °C, stimulated with the compounds to be tested for cytochrome C using Cytochrome C Human ELISA Kit (ab119521—Cytochrome C Human ELISA Kit, Vaccera institute, Egypt) (See Supplementary Materials). […]\n• Equilibrate all materials and prepared reagents to room temperature prior to use.\n• It is recommended to assay all standards, controls and samples in duplicate.\n13.1. Prepare all reagents, working standards, and samples as directed in the previous sections.\nDetermine the number of microplate strips required to test the desired number of samples plus […]\nappropriate number of wells needed for running blanks and standards. Predilute samples before […]\nstarting the test procedure with one-part sample to one-part 1X Assay Buffer.\n13.2. Wash the microplate twice with approximately 400 μL 1X Wash Buffer per well with […]\nthorough aspiration of microplate contents between washes. Allow the 1X Wash Buffer to remain in […]\nNote: The color development on the plate should be monitored and the substrate reaction stopped […]\nthe stop solution when the highest standard has developed a dark blue color. Alternatively, the color development can be monitored by the ELISA reader at 620 nm. […]\nNote: It is important that the Stop Solution is mixed quickly and uniformly throughout the microplate to completely inactivate the enzyme. Results must be read immediately after the Stop Solution is added or within one hour if the microplate strips are stored at 2 - 8°C in the dark.\n13.15. Read absorbance of each microplate on a spectrophotometer using 450 nm as the primary wavelength (optionally 620 nm as the reference wavelength; 610 nm to 650 nm is acceptable).\nBlank the plate reader according to the manufacturer's instructions by using the blank wells.\nDetermine the absorbance of both the samples and the standards. […]"}, "testis of I/R rats": {"system": "testis of I/R rats", "experiment": "Testicular histopathology (H&E, Cosentino's score, Johnson's scoring) in I/R rats", "format": "in vivo", "conditions": "for Histopathological finding in testis sections: H&E sections; for Histopathological/spermatogenesis scoring difference compared to the reference (NAC): Cosentino's score and Johnson's scoring, p-value < 0.005", "source_text": "Also, it decreased spermatogenesis when compared to the control group by using Johnson’s scoring system (Figure 9B).\nThe seminiferous tubules were seen lined with stratified testicular epithelium rested on basement membranes. […] Ruptured tubules and distorted Leydig cells and sloughed cells could be also observed (Figure 10B). […] Distorted Leydig cells with dilated blood vessels (BV) were frequently seen among the sections (Figure 12). […] Dilated blood vessels and the presence of amyloid substance were also found (Figure 13).\nMultiple testicular specimens were stained by hematoxylin-eosin (ab245880, Abcam, Cambridge, MA, USA) using Cosentino’s score for semi-quantitation of pathological changes in different seminiferous tubules. By using Johnson’s scoring system, the effect of ischemia on the spermatogenesis can be studied (See Supporting Materials).\nSemi-quantitative data were measured and counted per section in ten randomly selected non-overlapping fields using power × 400 magnifications of the sections from each rat. The results were carried out using the Image J program analysis software (Image J 1.48V, Maryland, MD, USA; Wayne Rasb and National Institutes of Health). […]\n4. Histopathological Investigation\nMultiple testicular specimens were fixed in Bouin's solution for about 24 hour, dehydrated in an alcohol grades, cleaned with xylene and then embedded in paraffin wax. Tissue sections (about six μm) were stained by haematoxylin–eosin (H&E) and were studied by an experienced histologist. In the current study, we used Cosentino's score for semi-quantitation of pathological changes on different seminiferous tubules in the whole groups by grading these tubules between one and four, and the mean scores were taken by dividing the totality to the whole number of testicular tubules .\nBy using Johnson’s scoring system, the effect of ischemia on the spermatogenesis can be studied.\nThe grades were counted one to ten, and the total scores were taken by dividing the totality to the whole number of testicular tubules.\n4.2.Histopathological grading score (Cosentino's score)\nI Normal testicular structure\nII less orderly germinal cells with closely packed seminiferous tubules III Anarchic sloughed germinal cells, with less pyknotic nuclei size and less distinct seminiferous […]\nIV Closely packed seminiferous tubules and coagulative necrosis\nNote: Semi-quantitation of pathological changes on different seminiferous tubules in the whole groups by grading the tubules between 1 and 4, and the mean scores were obtained by dividing the totality to the whole number of testicular tubules.\n4.3.Spermatogenesis grading; Score Morphological picture\n10 Normal spermatogenesis\n9 less defect in spermatogenesis with multiple late spermatids, little disorganized epithelium 8 Less than five spermatozoa/tubule, less late spermatids\n7 Absence of spermatozoa, absent late spermatids, more early spermatids 6 No spermatozoa, absence of late spermatids with little early spermatids 5 No spermatozoa or spermatids, more spermatocytes\n4 No spermatozoa or spermatids, fewer spermatocytes\n2 No germinal cells, only Sertoli cells\n1 No seminiferous epithelium\nNote: By using Johnsen's scoring system, the effect of ischaemia on the spermatogenesis can be detected. The grades were from 1 to 10, and the total scores were taken by dividing to the whole number of testicular tubules."}}, "note": "Values joined by “and” are separate entries in the source; they are usually repeats but may differ in a detail not shown here. Identical values can stand only once.", "data": [{"smiles": "CC(=O)N[C@@H](CS)C(=O)O", "note": "[NAC, N-acetylcysteine, reference compound]", "values": [{"measurement": "Cyt C Conc", "setting": "cytochrome C", "result": "0.24 ± 0.019", "unit": "ng/mL"}, {"measurement": "Cyt C Fold Change", "setting": "cytochrome C; down-expression relative to control", "result": 4.13, "unit": "fold"}, {"measurement": "Histopathological finding in testis sections", "setting": "testis of I/R rats", "result": "more or less normal seminiferous tubules and Leydig cells except some areas displayed distorted tubules and widening of inter-tubular spaces"}]}, {"smiles": "Cc1ccc2[nH]c(=O)cc(OCc3cn(-c4cc(=O)[nH]c5ccccc45)nn3)c2c1", "note": "[6e, 6-Methyl-4-((1-(2-oxo-1,2-dihydroquinolin-4-yl)-1H-1,2,3-triazol-4-yl)methoxy)quinolin-2(1H)-one]", "values": [{"measurement": "Histopathological/spermatogenesis scoring difference compared to the reference (NAC)", "setting": "testis of I/R rats", "result": "weak significant differences"}, {"measurement": "Histopathological finding in testis sections", "setting": "testis of I/R rats", "result": "dilated seminiferous tubules"}]}, {"smiles": "COc1ccc2[nH]c(=O)cc(OCc3cn(-c4cc(=O)[nH]c5ccccc45)nn3)c2c1", "note": "[6g, 6-Methoxy-4-((1-(2-oxo-1,2-dihydroquinolin-4-yl)-1H-1,2,3-triazol-4-yl)methoxy)quinolin-2-(1H)-one]", "values": [{"measurement": "Histopathological/spermatogenesis scoring difference compared to the reference (NAC)", "setting": "testis of I/R rats", "result": "weak significant differences"}, {"measurement": "Histopathological finding in testis sections", "setting": "testis of I/R rats", "result": "dilated seminiferous tubules"}]}, {"smiles": "COc1ccc2[nH]c(=O)cc(-n3cc(COc4cc(=O)[nH]c5ccccc45)nn3)c2c1", "note": "[6c, 6-Methoxy-4-(4-(((2-oxo-1,2-dihydroquinolin-4-yl)oxy)methyl)-1H-1,2,3-triazol-1-yl)-quinolin-2(1H)-one]", "values": [{"measurement": "Cyt C Conc", "setting": "cytochrome C", "result": "0.28 ng/mL and 0.28 ± 0.011 ng/mL"}]}, {"smiles": "Cn1c(=O)cc(-n2cc(COc3cc(=O)[nH]c4ccccc34)nn2)c2ccccc21", "note": "[6d, 1-Methyl-4-(4-(((2-oxo-1,2-dihydroquinolin-4-yl)oxy)methyl)-1H-1,2,3-triazol-1-yl)quinolin-2(1H)-one]", "values": [{"measurement": "Histopathological/spermatogenesis scoring difference compared to the reference (NAC)", "setting": "testis of I/R rats", "result": "highly significant histopathological difference"}, {"measurement": "Histopathological finding in testis sections", "setting": "testis of I/R rats", "result": "ruptured seminiferous tubules with distorted Leydig cells"}]}, {"smiles": "Cc1ccc2[nH]c(=O)cc(OCc3cn(-c4cc(=O)[nH]c5ccc(C)cc45)nn3)c2c1", "note": "[6f, 6-Methyl-4-((1-(6-methyl-2-oxo-1,2-dihydroquinolin-4-yl)-1H-1,2,3-triazol-4-yl)meth-oxy)quinolin-2(1H)-one]", "values": [{"measurement": "Histopathological/spermatogenesis scoring difference compared to the reference (NAC)", "setting": "testis of I/R rats", "result": "highly significant histopathological difference"}, {"measurement": "Histopathological finding in testis sections", "setting": "testis of I/R rats", "result": "ruptured seminiferous tubules with distorted Leydig cells"}]}]}
